Consider 25 compounds from patent US9403805B2, “Antiviral compounds” (Hoffmann-La Roche Inc., priority 2012, dated 2016).

The subject of the test is HCV GT1b replicon. Kind of test: HCV GT1b replicon luciferase reporter assay (2209-23 cells). In kind it is cell-based. The conditions noted are these: Hepatitis C virus, genotype 1a / genotype 1b; 2209-23 cells (Huh-7 with GT-1b Con1 subgenomic replicon), Renilla luciferase read 72 hours after compound addition; read-out: GT-1a - EC50 (nM) HCV, GT1b, IC50 (µM). The text has this:
Determination of compounds HCV GT1b inhibitory replicon activity using the replicon luciferase reporter assay
The 2209-23 cell line was developed at Roche by stable transfection of the hepatoma cell line Huh-7 with a GT-1b Con1 subgenomic bicistronic replicon as previously described. Subgenomic replicon cell line was established in cured Huh7 cells, obtained from R. Bartenschlager (J Virol. 2003 March; 77 (5):3007-19) The GT-1a H77 subgenomic replicon vector pRLuc H77 1b 75 S/I, was created by replacing the nonstructural region of the GT-1b Con1 subgenomic replicon by the one of the H77 strain, except for the first 75 amino acids of the NS3 protein that are from GT-1b Conl strain. (J. Virol. 2001 77:5352-59) The GT-1a pRLuc H77 1b 75 S/I subgenomic replicon cell line was established in cured Huh7 cells, obtained from R. Bartenschlager. (J Virol. 2003 March; 77 (5):3007-19)
All the subgenomic replicon cell lines were cultured in Dulbecco's Modified Eagle Medium (DMEM-Glutamax™-I; Invitrogen Cat #10569-010). The medium was supplemented with 10% Fetal Bovine Serum (Invitrogen Cat #10082-147), 1% penicillin/streptomycin (Mediatech Cat #30-002-CI) and 500 μg/ml of G418 (Mediatech Cat #30-234-CI). Cells were maintained at 37° C. in a humidified 5% CO2 atmosphere.
2209-23 cells were plated at a cell density of 5000 cells per well in 96 well plates (Becton Dickinson, Cat #35 3296). Cells were plated in 90 μl of Dulbecco's Modified Eagle Medium (DMEM-Glutamax™-I), (Invitrogen Cat #10569-010) medium was supplemented with 5% Fetal Bovine Serum (Invitrogen Cat #10082-147), 1% penicillin/streptomycin (Mediatech Cat #30-002-CI). The pRluc H77 1b 75 SA cells were plated in 96-well plate at 3000 cells/well in DMEM-Glutamax™-I containing 5% FBS and 1% penicillin/streptomycin in 90 μl final volume. Cells were allowed to equilibrate for 24 hours at 37° C. and 5% CO2 at which time compounds were added. Compounds (or medium as a control) were added 24 hours post-plating in 3 fold dilutions at a final DMSO concentration of 1% in 10 μl volume. Renilla luciferase reporter signal was read 72 hours after addition of compounds using the Renilla Luciferase Assay System (Promega, cat #E2820). EC50 values were defined as the compound concentration at which a 50% reduction in the levels of renilla luciferase reporter was observed as compared to control samples in the absence of compound and was determined by non-linear fitting of compound dose-response data. The EC50 was approximated if maximum percentage inhibition was less than 90% and more than 70%.

SMILES strings stand for the structures.

By IC50 is commonly meant the midpoint of a concentration-inhibition curve. For `CC(C)(C)OC(=O)[C@@H]1C[C@H](NC(=O)c2ccc3ccccc3c2O)CN1CC1CCCCC1` [Compound I-1, (2S,4S)-1-Cyclohexylmethyl-4-[(1-hydroxy-naphthalene-2-carbonyl)-amino]-pyrrolidine-2-carboxylic acid tert-butyl ester], the concentration for half-maximal inhibition (IC50) worked out at 47 nM. With `COC(=O)[C@@H]1C[C@H](NC(=O)c2ccc3ccccc3c2O)CN1CCC(C)(C)C` [Compound I-2, (2S,4S)-1-(3,3-Dimethyl-butyl)-4-[(1-hydroxy-naphthalene-2-carbonyl)-amino]-pyrrolidine-2-carboxylic acid methyl ester] the figure was 79 nM; with `CCOC(=O)[C@@H]1C[C@H](NC(=O)c2ccc3ccccc3c2O)CCN1CC1CCCCC1` [Compound I-3, (2S,4R)-1-Cyclohexylmethyl-4-[(1-hydroxy-naphthalene-2-carbonyl)-amino]-piperidine-2-carboxylic acid ethyl ester], 51 nM; with `CCOC(=O)[C@@H]1C[C@H](NC(=O)c2ccc3ccccc3c2O)CN1CC1CCCCC1` [Compound I-4, (2S,4S)-1-Cyclohexylmethyl-4-[(1-hydroxy-naphthalene-2-carbonyl)-amino]-pyrrolidine-2-carboxylic acid ethyl ester], 29 nM. Take `O=C(N[C@H]1C[C@@H](c2nc3ccccc3o2)N(CC2CCCCC2)C1)c1ccc2ccccc2c1O` [Compound I-5, 1-Hydroxy-naphthalene-2-carboxylic acid ((3S,5S)-5-benzooxazol-2-yl-1-cyclohexylmethyl-pyrrolidin-3-yl)-amide]: the half-maximal inhibitory concentration (IC50) came to 52 nM.

For `COC(=O)[C@@H]1C[C@H](NC(=O)c2ccc3ccccc3c2O)CCN1CC1CCCCC1` [Compound I-6, (2S,4R)-1-Cyclohexylmethyl-4-[(1-hydroxy-naphthalene-2-carbonyl)-amino]-piperidine-2-carboxylic acid methyl ester], the IC50 is 55 nM. With `Cc1cnc([C@@H]2C[C@H](NC(=O)c3ccc4ccccc4c3O)CN2CC2CCCCC2)o1` [Compound I-7, 1-Hydroxy-naphthalene-2-carboxylic acid [(3S,5S)-1-cyclohexylmethyl-5-(5-methyl-oxazol-2-yl)-pyrrolidin-3-yl]-amide] the figure was 70 nM; with `O=C(N[C@H]1C[C@@H](c2ncc(-c3ccccc3)o2)N(CC2CCCCC2)C1)c1ccc2ccccc2c1O` [Compound I-8, 1-Hydroxy-naphthalene-2-carboxylic acid [(3S,5S)-1-cyclohexylmethyl-5-(5-phenyl-oxazol-2-yl)-pyrrolidin-3-yl]-amide], 86 nM; with `O=C(N[C@H]1C[C@@H](c2ncco2)N(CC2CCCCC2)C1)c1ccc2ccccc2c1O` [Compound I-9, 1-Hydroxy-naphthalene-2-carboxylic acid ((3S,5S)-1-cyclohexylmethyl-5-oxazol-2-yl-pyrrolidin-3-yl)-amide], 114 nM. The figure for `COC(=O)[C@@H]1C[C@H](NC(=O)c2ccc3ccccc3c2O)CN1CC1CCCCC1` [Compound I-10, (2S,4S)-1-Cyclohexylmethyl-4-[(1-hydroxy-naphthalene-2-carbonyl)-amino]-pyrrolidine-2-carboxylic acid methyl ester] is 120 nM; for `COC(=O)[C@@H]1C[C@H](NC(=O)c2ccc3ccccc3c2O)CN1Cc1ccccc1` [Compound I-11, (2S,4S)-1-Benzyl-4-[(1-hydroxy-naphthalene-2-carbonyl)-amino]-pyrrolidine-2-carboxylic acid methyl ester] it is 121 nM. As for `CCOC(=O)[C@@H]1C[C@H](NC(=O)c2ccc3ccccc3c2O)CN1CC1CCCC1` [Compound I-12, (2S,4S)-1-Cyclopentylmethyl-4-[(1-hydroxy-naphthalene-2-carbonyl)-amino]-pyrrolidine-2-carboxylic acid ethyl ester], the 50% inhibitory concentration (IC50) turned out to be 129 nM. On to `O=C(N[C@H]1C[C@@H](C(=O)NCc2ccccc2)N(CC2CCCCC2)C1)c1ccc2ccccc2c1O` [Compound I-13, (2S,4S)-1-Cyclohexylmethyl-4-[(1-hydroxy-naphthalene-2-carbonyl)-amino]-pyrrolidine-2-carboxylic acid benzylamide], for which the IC50 stood at 163 nM. The figure for `CCOC(=O)[C@@H]1C[C@H](NC(=O)c2ccc3ccccc3c2O)CN1C(=O)C1CCCCC1` [Compound I-14, (2S,4S)-1-Cyclohexanecarbonyl-4-[(1-hydroxy-naphthalene-2-carbonyl)-amino]-pyrrolidine-2-carboxylic acid ethyl ester] is 184 nM. With `CC(C)NC(=O)[C@@H]1C[C@H](NC(=O)c2ccc3ccccc3c2O)CN1CC1CCCCC1` [Compound I-15, (2S,4S)-1-Cyclohexylmethyl-4-[(1-hydroxy-naphthalene-2-carbonyl)-amino]-pyrrolidine-2-carboxylic acid isopropylamide], the IC50 was determined as 187 nM. The figure for `CCCNC(=O)[C@@H]1C[C@H](NC(=O)c2ccc3ccccc3c2O)CN1CC1CCCCC1` [Compound I-16, (2S,4S)-1-Cyclohexylmethyl-4-[(1-hydroxy-naphthalene-2-carbonyl)-amino]-pyrrolidine-2-carboxylic acid propylamide] is 205 nM; for `CCOC(=O)[C@@H]1C[C@H](NC(=O)c2ccc3ccccc3c2O)CN1CC1CCC1` [Compound I-17, (2S,4S)-1-Cyclobutylmethyl-4-[(1-hydroxy-naphthalene-2-carbonyl)-amino]-pyrrolidine-2-carboxylic acid ethyl ester] it is 219 nM. As for `CCNC(=O)[C@@H]1C[C@H](NC(=O)c2ccc3ccccc3c2O)CN1CC1CCCCC1` [Compound I-18, (2S,4S)-1-Cyclohexylmethyl-4-[(1-hydroxy-naphthalene-2-carbonyl)-amino]-pyrrolidine-2-carboxylic acid ethylamide], the IC50 came to 221 nM.

As to `CCNC(=O)[C@@H]1C[C@H](NC(=O)c2ccc3ccccc3c2O)CCN1CC1CCCCC1` [Compound I-19, (2S,4R)-1-Cyclohexylmethyl-4-[(1-hydroxy-naphthalene-2-carbonyl)-amino]-piperidine-2-carboxylic acid ethylamide], the IC50 turned out to be 223 nM. The figure for `COC(=O)[C@H]1C[C@H](NC(=O)c2ccc3ccccc3c2O)CN1CC1CCCCC1` [Compound I-20, (2R,4S)-1-Cyclohexylmethyl-4-[(1-hydroxy-naphthalene-2-carbonyl)-amino]-pyrrolidine-2-carboxylic acid methyl ester] is 233 nM; for `COC(=O)[C@]1(C)C[C@H](NC(=O)c2ccc3ccccc3c2O)CN1CC1CCCCC1` [Compound I-21, (2S,4S)-1-Cyclohexylmethyl-4-[(1-hydroxy-naphthalene-2-carbonyl)-amino]-2-methyl-pyrrolidine-2-carboxylic acid methyl ester] it is 247 nM. The figure for `CCOC(=O)[C@@H]1C[C@H](NC(=O)c2ccc3ccccc3c2O)CN1CC(C)C` [Compound I-22, (2S,4S)-4-[(1-Hydroxy-naphthalene-2-carbonyl)-amino]-1-isobutyl-pyrrolidine-2-carboxylic acid ethyl ester] is 299 nM. With `COC(=O)[C@@H]1C[C@H](NC(=O)c2ccc3ccccc3c2N)CN1CC1CCCCC1` [Compound I-23, (2S,4S)-4-[(1-Amino-naphthalene-2-carbonyl)-amino]-1-cyclohexylmethyl-pyrrolidine-2-carboxylic acid methyl ester], the IC50 is 336 nM. The figure for `CCOC(=O)[C@@H]1C[C@H](NC(=O)c2ccc3cccnc3c2O)CN1CC1CCCCC1` [Compound I-24, (2S,4S)-1-Cyclohexylmethyl-4-[(8-hydroxy-quinoline-7-carbonyl)-amino]-pyrrolidine-2-carboxylic acid ethyl ester] is 367 nM; for `NC(=O)[C@@H]1C[C@H](NC(=O)c2ccc3ccccc3c2O)CN1CC1CCCCC1` [Compound I-25, (2S,4S)-1-Cyclohexylmethyl-4-[(1-hydroxy-naphthalene-2-carbonyl)-amino]-pyrrolidine-2-carboxylic acid amide] it is 509 nM.
